Test system: CD14 expression
Experiment: Induction of CD14 expression in THP-1 cells (FITC-labeled anti-CD14 antibody, flow cytometry)
Type: cell-based, human
Settings: VD3 about 100 nM, 3 days, 10,000 cells, 40 where no VD3 was added
Method: Human monocytic THP-1 cells (purchased from Dainippon Pharmaceutical Co., Ltd.) were used as cells. As a culture medium, RPMI medium 1640 with L-glutamine (RPMI; GIBCO Co.), to which inactivated fetal calf serum (GIBCO Co.) at a concentration of 10% (v/v) and penicillin-streptomycin involving penicillin G sodium and streptomycin sulfate at a concentration of 100 U/ml and 100 µg/ml respectively, were added. For induction of CD14 expression, the cells were suspended in the medium at a content of about 3 × 10^5 cells/ml, to which 1,25-dihydroxyvitamin D3 (VD3; Roussel-UCLAF S.A.) was added at a final concentration of about 100 nM. The cells were incubated in the presence of 5% CO2 in a CO2 incubator MODEL 6200-03 (National Appliance Company) at 37°C for 3 days. The cultured cells were suspended into PBS at 10^6 cells/ml, to which FITC-labeled anti-human CD14 monoclonal antibody clone. UCHM1 (Ancell Co.) was added at a concentration of 1.6 µg/ml. The mixture was incubated at 4°C for 1 hour. The cells were washed 3 times with PBS by centrifugation (1,000 rpm, 3 minutes, 20°C), suspended into 1,000 µl of PBS, and filtered through a tube with a filter (FALCON2235 (Becton Dickinson Co.)). For the resulting cell suspension, the amount of the FITC-labeled anti-CD14 antibody bound to 10,000 cells was determined using a flow cytometer Cyto ACE-300 (JASCO Coporation). […]

SMILES: C=C1/C(=C\C=C2/CCC[C@]3(C)[C@@H]([C@H](C)CCCC(C)(C)O)CC[C@@H]23)C[C@@H](O)C[C@@H]1O [VD3, 1,25-dihydroxyvitamin D3]
- mean fluorescence intensity (MFI) of bound FITC-labeled anti-CD14 antibody: 114.9
